Values quoted from earlier work, collected in publication PMC7395068, “The evolution of strategies to minimise the risk of human drug-induced liver injury (DILI) in drug discovery and development” (Archives of Toxicology, 2020).
Like-named read-outs stand apart in the source and are kept apart here.

What was measured:
[1] = cited from earlier work
[2] = test system: HepG2 cells; conditions: cited from earlier work
[3] = test system: THLE or HepG2 cells, isolated mitochondria, BSEP; conditions: cited from earlier work
[4] = cited from earlier work; remark: listed apart in the source
[5] = test system: human hepatocytes; conditions: cited from earlier work
[6] = test system: HepG2 cells; conditions: cited from earlier work; remark: listed apart in the source
[7] = test system: isolated mouse liver mitochondria; conditions: cited from earlier work
[8] = In vitro Assay, ref Persson 2013
[9] = In vitro Assay, ref O'Brien 2006
[10] = In vitro Assay, ref Porceddu 2012

## O=C(O)CCCCCCNC1c2ccccc2CCc2ccccc21 [amineptine]
[1]; in vivo
  DILI +VE (5-8), DILI -VE (-4): +VE
  DILI severity category: vMost-DILI-Concern
[2]
  Cluser analysis: -VE
  Structural based (HCI): -VE
[3]
  Partition Hybrid HRM Score: +VE
  Ro2 Hybrid HRM Score: -VE
[4]; in vivo
  In vivo DILI: +VE

## Nc1ccc(C(=O)O)c(O)c1 [aminosalicylic acid]
[2]; [8]
  Cluser analysis: -VE
  Structural based (HCI): -VE
[5]
  Structural based (HCI): +VE
[4]; in vivo
  In vivo DILI: +VE

## Nc1ccc(C(=O)O)c(O)c1 [aminosalycilate]
[6]
  Structural based (HCI): +VE (key: +VE: lowest HCI endpoint IC50 (or in the absence of dose–response < 100 µM) < 30 × total human plasma exposure levels (Cmax.tot))

## CCN1CCCC1CNC(=O)c1cc(S(=O)(=O)CC)c(N)cc1OC (stereo not shown) [amisulpride]
[2]; [8]
  Cluser analysis: -VE
  Structural based (HCI): -VE
[4]; ref Persson 2013
  In vivo DILI: -VE

## O=C(O)CCCC[C@@H]1SC[C@@H]2NC(=O)N[C@@H]21 [biotin]
[2]
  Cluser analysis: -VE
  Structural based (HCI): -VE
[5]
  Structural based (HCI): -VE
[4]; in vivo
  In vivo DILI: -VE
[7]
  in vitro data EC20<=2uM: -VE

## CC(C)(O/N=C(\C(=O)N[C@@H]1C(=O)N2C(C(=O)[O-])=C(C[n+]3ccccc3)CS[C@H]12)c1csc(N)n1)C(=O)O [ceftazidime]
[1]; ref Chen 2016
  DILI +VE (5-8), DILI -VE (-4): +VE
  DILI severity category: vLess-DILI-Concern
[6]; [9]
  Structural based (HCI): +VE (lowest HCI endpoint IC50 (or in the absence of dose–response < 100 µM) < 30 × total human plasma exposure levels (Cmax.tot))
[4]; […]
  In vivo DILI: +VE
[4]; ref O'Brien 2006
  In vivo DILI: +VE

## COCc1c(C(C)C)nc(C(C)C)c(/C=C/[C@@H](O)C[C@@H](O)CC(=O)O)c1-c1ccc(F)cc1 [cerivastatin]
[6]
  Structural based (HCI): +VE (key: +VE: lowest HCI endpoint IC50 (or in the absence of dose–response < 100 µM) < 30 × total human plasma exposure levels (Cmax.tot))
[4]; ref O'Brien 2006
  In vivo DILI: +VE

## Oc1c(I)cc(Cl)c2cccnc12 [clioquinol]
[6]; [9]
  Structural based (HCI): +VE (lowest HCI endpoint IC50 (or in the absence of dose–response < 100 µM) < 30 × total human plasma exposure levels (Cmax.tot))
[4]; ref O'Brien 2006
  In vivo DILI: -VE

## Clc1ccccc1C(c1ccccc1)(c1ccccc1)n1ccnc1 [clotrimazole]
[1]; ref Chen 2016
  DILI +VE (5-8), DILI -VE (-4): +VE
  DILI severity category: vLess-DILI-Concern
[5]; In vitro Assay, ref Xu 2008
  Structural based (HCI): -VE
[3]; In vitro Assay, ref Aleo 2019
  Partition Hybrid HRM Score: +VE
  Ro2 Hybrid HRM Score: +VE
[4]; […]
  In vivo DILI: -VE
[4]; ref Aleo 2019
  In vivo DILI: +VE
[4]; ref Porceddu 2012
  In vivo DILI: +VE
[4]; ref Xu 2008
  In vivo DILI: -VE
[7]; [10]
  in vitro data EC2<=1x Cmax: +VE
  in vitro data EC20<=2uM: +VE

## O=C(O)c1cc(-c2ccc(F)cc2F)ccc1O [diflunisal]
[1]; ref Chen 2016
  DILI +VE (5-8), DILI -VE (-4): +VE
  DILI severity category: vMost-DILI-Concern
[5]; In vitro Assay, ref Xu 2008
  Structural based (HCI): +VE
[4]; ref Porceddu 2012
  In vivo DILI: +VE
[4]; ref Xu 2008
  In vivo DILI: +VE
[7]; [10]
  in vitro data EC2<=1x Cmax: +VE
  in vitro data EC20<=2uM: +VE

## CCOC(=O)[C@H](CCc1ccccc1)N[C@@H](C)C(=O)N1CCC[C@H]1C(=O)O [enalapril]
[1]; ref Chen 2016
  DILI +VE (5-8), DILI -VE (-4): +VE
  DILI severity category: vLess-DILI-Concern
[6]; [9]
  Structural based (HCI): +VE (lowest HCI endpoint IC50 (or in the absence of dose–response < 100 µM) < 30 × total human plasma exposure levels (Cmax.tot))
[4]; ref O'Brien 2006
  In vivo DILI: +VE

## CC[C@]1(O)CC[C@H]2[C@@H]3CCC4=CCCC[C@@H]4[C@H]3CC[C@@]21C [ethylestrenol]
[6]; [9]
  Structural based (HCI): +VE (lowest HCI endpoint IC50 (or in the absence of dose–response < 100 µM) < 30 × total human plasma exposure levels (Cmax.tot))
[4]; ref O'Brien 2006
  In vivo DILI: +VE

## CCNC(C)Cc1cccc(C(F)(F)F)c1 (stereo not shown) [fenfluramine]
[6]; [9]
  Structural based (HCI): -VE
[4]; ref O'Brien 2006
  In vivo DILI: -VE

## CC(C)(C(=O)O)c1ccc(C(O)CCCN2CCC(C(O)(c3ccccc3)c3ccccc3)CC2)cc1 (stereo not shown) [fexofenadine]
[2]
  Cluser analysis: -VE

## O=C(O)c1ccccc1Nc1cccc(C(F)(F)F)c1 [flufenamate]
[6]; [9]
  Structural based (HCI): +VE (lowest HCI endpoint IC50 (or in the absence of dose–response < 100 µM) < 30 × total human plasma exposure levels (Cmax.tot))
[4]; ref O'Brien 2006
  In vivo DILI: -VE

## Nc1nc(=O)c2c([nH]1)NC[C@@H](CNc1ccc(C(=O)N[C@@H](CCC(=O)O)C(=O)O)cc1)N2C=O [folinic acid]
[2]; [8]
  Cluser analysis: -VE
  Structural based (HCI): -VE
[4]; ref Persson 2013
  In vivo DILI: -VE

## O=C(O)P(=O)(O)O [foscarnet]
[1]; ref Chen 2016
  DILI +VE (5-8), DILI -VE (-4): -VE
  DILI severity category: Ambiguous DILI-concern
[6]; [9]
  Structural based (HCI): +VE (lowest HCI endpoint IC50 (or in the absence of dose–response < 100 µM) < 30 × total human plasma exposure levels (Cmax.tot))
[4]; ref O'Brien 2006
  In vivo DILI: -VE

## FC(F)(F)C(Cl)Br (stereo not shown) [halothane]
[6]; HepG2 HCI, ref O'Brien 2006
  Structural based (HCI), In vitro Assay: +VE
[4]; assignment in O'Brien 2006, ref O'Brien 2006
  In vivo DILI: -VE
